# Source: paper PMC2970651 (Bioorganic & medicinal chemistry, 2010)
# Read-outs that look alike come from different tables or passages of the source.
# What was measured:
# [1] = test system: maximal electroshock seizure (generalized tonic-clonic seizures); assay: Maximal Electroshock Seizure; assay type: in vivo, mice; settings: i.p.; for protection in the MES test in mice at 100 mg/kg (in words) / MES protection, animals protected/animals tested at 0.5 h: mice; for MES protection, animals protected/animals tested at 0.5 h: 100 mg/kg (stated for 19 and 20)
# [2] = test system: maximal electroshock seizure (generalized tonic-clonic seizures); assay: MES test, oral administration to rats; assay type: in vivo; settings: 30 mg/kg
# mice = assay: Acute toxicity, minimal motor impairment; assay type: in vivo; settings: i.p.
# human Nav1.2 [3] = molecular target: T1, human Nav1.2 (Homo sapiens, UniProt Q99250); assay type: cell-based
# human Nav1.2 [4] = molecular target: T1, human Nav1.2; settings: cited from earlier work
# T1 sequence (Q99250 whole entry): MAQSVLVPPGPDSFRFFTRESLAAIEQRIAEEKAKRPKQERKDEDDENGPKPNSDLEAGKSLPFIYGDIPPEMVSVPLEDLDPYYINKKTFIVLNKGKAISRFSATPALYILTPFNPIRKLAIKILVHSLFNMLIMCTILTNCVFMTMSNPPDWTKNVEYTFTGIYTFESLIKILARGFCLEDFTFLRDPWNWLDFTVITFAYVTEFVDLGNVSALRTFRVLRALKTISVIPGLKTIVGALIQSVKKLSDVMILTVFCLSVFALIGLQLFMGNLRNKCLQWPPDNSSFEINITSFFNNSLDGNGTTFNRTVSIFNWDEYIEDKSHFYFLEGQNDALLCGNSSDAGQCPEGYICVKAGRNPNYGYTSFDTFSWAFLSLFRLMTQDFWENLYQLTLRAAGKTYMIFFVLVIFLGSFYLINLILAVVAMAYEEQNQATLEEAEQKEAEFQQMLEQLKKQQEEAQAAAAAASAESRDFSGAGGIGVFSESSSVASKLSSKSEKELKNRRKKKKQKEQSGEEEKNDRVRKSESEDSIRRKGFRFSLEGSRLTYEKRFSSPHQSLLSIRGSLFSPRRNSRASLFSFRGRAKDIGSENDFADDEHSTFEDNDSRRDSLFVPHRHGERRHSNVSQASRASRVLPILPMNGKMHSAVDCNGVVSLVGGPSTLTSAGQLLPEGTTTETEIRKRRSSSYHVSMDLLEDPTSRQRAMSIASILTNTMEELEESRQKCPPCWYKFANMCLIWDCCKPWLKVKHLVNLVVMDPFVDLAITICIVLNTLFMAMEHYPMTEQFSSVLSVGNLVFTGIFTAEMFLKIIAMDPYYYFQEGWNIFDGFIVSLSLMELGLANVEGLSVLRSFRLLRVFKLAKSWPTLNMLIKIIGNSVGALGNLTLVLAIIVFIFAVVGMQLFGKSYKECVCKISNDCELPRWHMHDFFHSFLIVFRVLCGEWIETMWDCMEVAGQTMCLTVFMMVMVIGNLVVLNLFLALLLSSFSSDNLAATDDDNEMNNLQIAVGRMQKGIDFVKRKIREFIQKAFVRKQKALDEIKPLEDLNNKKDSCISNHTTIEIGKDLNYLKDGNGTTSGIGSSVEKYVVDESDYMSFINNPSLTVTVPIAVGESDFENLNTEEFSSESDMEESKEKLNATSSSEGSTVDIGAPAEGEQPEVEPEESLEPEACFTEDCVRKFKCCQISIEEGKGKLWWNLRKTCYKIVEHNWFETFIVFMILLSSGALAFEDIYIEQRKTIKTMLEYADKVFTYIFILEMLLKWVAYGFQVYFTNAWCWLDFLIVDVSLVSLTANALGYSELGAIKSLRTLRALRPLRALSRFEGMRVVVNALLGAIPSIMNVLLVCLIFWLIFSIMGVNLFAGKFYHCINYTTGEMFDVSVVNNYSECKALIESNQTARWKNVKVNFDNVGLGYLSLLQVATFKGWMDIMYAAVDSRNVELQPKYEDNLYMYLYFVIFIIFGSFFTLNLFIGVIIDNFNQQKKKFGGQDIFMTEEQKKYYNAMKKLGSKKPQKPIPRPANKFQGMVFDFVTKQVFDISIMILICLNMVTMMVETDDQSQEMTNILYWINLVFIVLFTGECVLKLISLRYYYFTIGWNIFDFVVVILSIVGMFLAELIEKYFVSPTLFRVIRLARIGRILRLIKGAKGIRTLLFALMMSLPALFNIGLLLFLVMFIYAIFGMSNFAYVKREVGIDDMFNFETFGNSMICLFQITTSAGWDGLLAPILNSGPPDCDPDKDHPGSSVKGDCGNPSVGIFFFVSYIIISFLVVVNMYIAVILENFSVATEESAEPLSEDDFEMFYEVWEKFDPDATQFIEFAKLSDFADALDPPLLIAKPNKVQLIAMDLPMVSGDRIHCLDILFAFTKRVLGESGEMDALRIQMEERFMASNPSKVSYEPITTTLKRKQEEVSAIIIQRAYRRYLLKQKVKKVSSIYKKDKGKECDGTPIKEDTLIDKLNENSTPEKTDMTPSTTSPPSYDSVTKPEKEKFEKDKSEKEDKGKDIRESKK
smiles,measurement,setting,value
FC(F)(F)c1cccc(-c2c[nH]c(-c3ccccc3)n2)c1 [Compound 26],protection in the MES test in mice at 100 mg/kg (in words),[1],Some protection
Clc1ccc(-c2c[nH]c(-c3ccccc3)n2)cc1 [Compound 19],"MES protection, animals protected/animals tested at 0.5 h",[1],3/3
same,ability to prevent seizure spread in the MES test after oral administration (in words),[2],not able to prevent seizure spread
FC(F)(F)c1cccc(-c2c[nH]c(-c3cccc(C(F)(F)F)c3)n2)c1 [Compound 29],protection in the MES test in mice at 100 mg/kg (in words),[1],Some protection
FC(F)(F)c1ccc(-c2nc(-c3ccccc3)c[nH]2)cc1 [Compound 17],"MES protection, animals protected/animals tested at 0.25 h","[1]; 0.25 h, text says rats, Supplementary Data Table 1",2/3
same,dose up to which no toxicity was observed,mice,500 mg/kg
same,action on hNaV1.2 current at 10 μM,human Nav1.2 [3],22.7%
same,fold greater potency for hNav1.2 than phenytoin,human Nav1.2 [3]; ratio of IC50 values,4 fold
O=C1NC(=O)C(c2ccccc2)(c2ccccc2)N1 [Phenytoin],action on hNaV1.2 current at 10 μM,human Nav1.2 [4],10.6%
Clc1cccc(-c2c[nH]c(-c3ccccc3)n2)c1 [Compound 20],"MES protection, animals protected/animals tested at 0.5 h",[1],3/3
same,dose up to which no toxicity was observed,mice,500 mg/kg
same,action on hNaV1.2 current at 10 μM,human Nav1.2 [3],16.8%
O=[N+]([O-])c1ccc(-c2nc(-c3ccccc3)c[nH]2)cc1 [Compound 15],protection in the MES test in mice at 100 mg/kg (in words),[1],Some protection
COc1ccc(-c2c[nH]c(-c3ccccc3)n2)cc1 [Compound 21],ability to prevent seizure spread in the MES test after oral administration (in words),[2],not able to prevent seizure spread
FC(F)(F)c1ccc(-c2c[nH]c(-c3ccccc3)n2)cc1 [Compound 25],protection in the MES test in mice at 100 mg/kg (in words),[1],Some protection
O=[N+]([O-])c1ccc(-c2c[nH]c(-c3ccccc3)n2)cc1 [Compound 23],protection in the MES test in mice at 100 mg/kg (in words),[1],Some protection
Clc1cccc(-c2nc(-c3ccccc3)c[nH]2)c1 [Compound 12],protection in the MES test in mice at 100 mg/kg (in words),[1],Some protection
O=[N+]([O-])c1cccc(-c2c[nH]c(-c3ccccc3)n2)c1 [Compound 24],"MES protection, animals protected/animals tested at 0.5 h",[1],2/3
same,ability to prevent seizure spread in the MES test after oral administration (in words),[2],not able to prevent seizure spread
O=[N+]([O-])c1cccc(-c2nc(-c3ccccc3)c[nH]2)c1 [Compound 16],"MES protection, animals protected/animals tested at 0.5 h",[1],2/3
COc1ccc(-c2nc(-c3ccccc3)c[nH]2)cc1 [Compound 13],action on hNaV1.2 current at 10 μM,human Nav1.2 [3],30.1%
COc1cccc(-c2c[nH]c(-c3ccccc3)n2)c1 [Compound 22],ability to prevent seizure spread in the MES test after oral administration (in words),[2],not able to prevent seizure spread
